{"source": "patent US20150368617A1", "about": "“METHOD FOR FORMING ENDOTHELIAL CELLS” (Korea Advanced Institute of Science and Technology (KAIST), priority 2012, published 2015)", "assay_type_in_all_cases": "cell-based, mouse", "key": {"ESC": {"tested_on": "ESC", "assay": "Estimation of number of ECs generated from one ESC in the 2D Matrigel system", "conditions": "day 8.5", "protocol": "FIG. 16. Estimation and comparison of number of ECs generated from one ESC grown with indicated agents in the 2D Matrigel system at day 6.5 and 8.5. Estimation was calculated from 5 independent incubations.\nTo maximize the amount of ECs obtained from ESC, we expanded the ICAM2+ ECs for 2 days using the same culture system with VEGF-A and Y27632 (FIG. 14A). When the ECs were grown for 2 days without either VEGF-A or Y27632, the population of CD31+/CD144+ ECs underwent a decrease of ˜30% from the initial population of ˜90% (FIG. 14B-D). […] This way, we were further able to obtain ˜4.2-fold expansion of CD31+/CD144+ ECs from the ICAM2+ ECs (FIGS. 14B-F) In the presence of VEGF-A, Y27632 promoted the adhesion of ICAM2+ ECs onto the plate by 1.3-fold at 6 hrs after plating (FIG. 14G). In these purified ECs, Y27632 and VEGF-A each promoted the proliferation of ECs to a similar level, and combination of Y27632 and VEGF-A promoted EC proliferation to a greater degree. […] Based on these findings, we conclude that further expansion of high purity ECs (>90%) could be achieved from ESC by combination of simultaneous ROCK suppression and VEGF-stimulation—these high purity ECs are hereafter referred to as “VEGF-A plus Y27632-induced and anti-ICAM2 antibody-sorted ECs (VYI-ECs)” (FIG. 14A). […]"}, "Flk1+ MPCs": {"tested_on": "Flk1+ MPCs", "assay": "Differentiation of MCs from Flk1+ MPCs, FACS of αSMA+ MCs", "conditions": "Y27632 10 μM; ML7 5 μM", "protocol": "FIGS. 11A-11D. ROCK suppression promotes the differentiation of ECs through PTEN-Akt signaling and inhibits the differentiation of MCs through MyPT-MLC signaling. (FIG. 11A) Representative FACS analysis of CD31+/CD144+ ECs incubated with 0.1% DMSO or LY294002 (20┌ M; LY) in the presence of PBS (Control) or Y27632 (10┌ M; Y). (FIG. 11B) % of CD31+/CD144+ EC population. Each group, n=3. *p<0.01 versus 0. Each group, n=3. *p<0.01 versus DMSO; ^#p<0.01 versus Y27632. (FIG. 11C) Representative FACS analysis of ┌ SMA+MCs or CD144+ ECs incubated with 0.1% DMSO or ML7 (5 ┌ M) in the presence of PBS (Control) or Y27632 (10┌ M). (FIG. 11D) % of ┌ SMA+MC population. Each group, n=3. *p<0.01 versus 0. Each group, n=3. *p<0.01 versus DMSO. n.s. represents statistically non-significant.\nAnalysis and sorting for CMs were performed at day 10.5. We harvested differentiated Flk1+ MPCs on OP9 cells with 0.25% trypsin-EDTA or dissociation buffer (Invitrogen). Cardiac troponin-T (cTnT)+ and ┌ smooth muscle actin (SMA)+ cells were analyzed after permeabilization using Cytofix/Cytoperm solution (BD Biosciences) for 15 min. After permeabilization, the cells were incubated for 30 min with anti-mouse cTnT (NeoMarkers) monoclonal antibody. […] Data were analyzed using FlowJo Version 7.5.4 software (TreeStar)."}, "VYI-ECs": {"tested_on": "VYI-ECs", "assay": "Scratch wound healing assay", "conditions": "addition of Y27632 10 μM to VEGF-A", "protocol": "The purified VYI-ECs were plated on Matrigel-coated plates and incubated in differentiation medium until confluent. A single scratch wound was made on the cell-plated surface with a 200┌ l disposable pipette tip, and the medium was exchanged with a new medium containing either VEGF-A (50 ng/ml), Y27632 (10┌ M), or both. The wound was allowed to heal for 12 hrs. Phase contrast images were taken at 0, 3, 6, and 12 hrs. The average extent of wound closure was evaluated by measuring the wound area using ImageJ software."}}, "data": [{"smiles": "C[C@@H](N)[C@H]1CC[C@H](C(=O)Nc2ccncc2)CC1", "note": "[Y27632]", "values": [{"measurement": "number of ECs generated from one ESC (from ˜73 Flk1+ MPCs)", "setting": "ESC", "value": "~36"}, {"measurement": "reduction of αSMA+MC population", "setting": "Flk1+ MPCs", "value": "~83", "unit": "%"}, {"measurement": "increase of cell invasion into the wound region", "setting": "VYI-ECs", "value": 2.1, "unit": "fold"}]}]}
